This is an account of results in PMC8952293, “A Histone Deacetylase (HDAC) Inhibitor with Pleiotropic In Vitro Anti-Toxoplasma and Anti-Plasmodium Activities Controls Acute and Chronic Toxoplasma Infection in Mice” (International Journal of Molecular Sciences, 2022).

Data set [1] can be described thus: Stability of the radiolabeled compound in the medium. The class given is physicochemical. Conditions: corn oil with 5% DMSO. As for the experimental part:
(§1) An isotopic exchange was performed to obtain the radiolabeled iodinated JF363. Briefly, 2 mg of the iodinated molecule was incubated in acetone with 3 mg of cold Na127I and 55.5 MBq of radioactive Na125I (PerkinElmer) for 1 h at 95 °C in a heat block. After evaporation of acetone, the radiotracer was solubilized in corn oil; 5% DMSO was also added to mimic the previous conditions. Quality controls were performed by TLC.

A short description of data set [2]: SPECT/CT imaging of the iodine-125 radiotracer in infected mice. The class given is in vivo, mouse. How it is done: as §1
Three female CD1 mice (31.7 ± 1.3 g; Janvier Labs, Le Genest-Saint-Isle, France) and two female mice infected with T. gondii obtained as previously described (19.5 ± 2.1 g) were studied. The previous study gave the radiotracer by oral gavage (administered dose: 0.73 ± 0.25 MBq/g). Before imaging, mice were anesthetized using isoflurane (2% in a mixture of air: O2) and positioned in a thermostatic bed. Whole-body single-photon emission computerized tomography/computed tomography (SPECT/CT) acquisitions were performed 0.5, 3.5, and 24 h after injection using a dedicated system (nanoSPECT-CT; Mediso, Budapest, Hungary). First, CT and SPECT acquisitions were reconstructed and fused using Nucline software (Mediso, Budapest, Hungary). This fusion allowed drawing a volume of interest (VOI in cm^3) on selected/visible organs, and SPECT quantification based on CT was then performed using VivoQuant (InviCRO, Boston, MA, USA). Results were expressed in %ID/cm^3 or %ID/g (percentage of injected dose per cubic centimeter or gram of tissue).

Another data set deals with Toxoplasma. More on the design: method as in PMID 22712598. Conditions: primary drug used to treat toxoplasmosis; cited from earlier work.
A further data set relates to Toxoplasma gondii. More on the design: method as in PMID 20713670. As to conditions: cited from earlier work.

Turning to `COc1cc(CC(=O)Nc2ccc(C(=O)NO)cc2)ccc1I` [iodo-JF363], in data set [1], the “stability in the medium” value was “good up to 72 h”. In addition, the SPECT quantification in data set [2] (Bladder, infected mouse #2, 0.5 h pi) was 5.5 %DI/cm^3; in data set [2] (Bladder, infected mouse #2, 3.5 h pi) it was 19.1 %DI/cm^3; in data set [2] (Bladder, infected mouse #2, 24 h pi), 0.6 %DI/cm^3; in data set [2] (Bladder, infected mouse #3, 0.5 h pi), 6.4 %DI/cm^3; in data set [2] (Bladder, infected mouse #3, 3.5 h pi) it was 8.2 %DI/cm^3; in data set [2] (Bladder, infected mouse #3, 24 h pi), 3.9 %DI/cm^3. Moreover, the SPECT quantification is reported as 3.1 %DI/cm^3 in data set [2] (Heart, infected mouse #2, 0.5 h pi); 2.1 %DI/cm^3 in data set [2] (Heart, infected mouse #2, 3.5 h pi); 0.2 %DI/cm^3 in data set [2] (Heart, infected mouse #2, 24 h pi); 1.0 %DI/cm^3 in data set [2] (Heart, infected mouse #3, 0.5 h pi); 1.0 %DI/cm^3 in data set [2] (Heart, infected mouse #3, 3.5 h pi); 0.2 %DI/cm^3 in data set [2] (Heart, infected mouse #3, 24 h pi). For the same compound, the SPECT quantification in data set [2] (Intestine, infected mouse #2, 0.5 h pi) was 16.7 %DI/cm^3; in data set [2] (Intestine, infected mouse #2, 3.5 h pi) it was 13.8 %DI/cm^3; in data set [2] (Intestine, infected mouse #2, 24 h pi) it was 0.5 %DI/cm^3; in data set [2] (Intestine, infected mouse #3, 0.5 h pi) it was 3.8 %DI/cm^3; in data set [2] (Intestine, infected mouse #3, 3.5 h pi), 4.9 %DI/cm^3; in data set [2] (Intestine, infected mouse #3, 24 h pi), 1.5 %DI/cm^3. Besides, the SPECT quantification is given as 1.8 %DI/cm^3 in data set [2] (Lungs, infected mouse #2, 0.5 h pi); 1.5 %DI/cm^3 in data set [2] (Lungs, infected mouse #2, 3.5 h pi); 0.1 %DI/cm^3 in data set [2] (Lungs, infected mouse #2, 24 h pi); 0.6 %DI/cm^3 in data set [2] (Lungs, infected mouse #3, 0.5 h pi); 0.5 %DI/cm^3 in data set [2] (Lungs, infected mouse #3, 3.5 h pi); 0.2 %DI/cm^3 in data set [2] (Lungs, infected mouse #3, 24 h pi). Further, the SPECT quantification was 10.0 %DI/cm^3 in data set [2] (Mouth, infected mouse #2, 0.5 h pi); 8.4 %DI/cm^3 in data set [2] (Mouth, infected mouse #2, 3.5 h pi); 4.7 %DI/cm^3 in data set [2] (Mouth, infected mouse #2, 24 h pi); 10.5 %DI/cm^3 in data set [2] (Mouth, infected mouse #3, 0.5 h pi); 6.8 %DI/cm^3 in data set [2] (Mouth, infected mouse #3, 3.5 h pi); 3.4 %DI/cm^3 in data set [2] (Mouth, infected mouse #3, 24 h pi). In addition, the SPECT quantification in data set [2] (Neck ganglia, infected mouse #2, 0.5 h pi) turned out to be 8.5 %DI/cm^3; in data set [2] (Neck ganglia, infected mouse #2, 3.5 h pi), 9.5 %DI/cm^3; in data set [2] (Neck ganglia, infected mouse #2, 24 h pi) it was 1.3 %DI/cm^3; in data set [2] (Neck ganglia, infected mouse #3, 0.5 h pi), 4.0 %DI/cm^3; in data set [2] (Neck ganglia, infected mouse #3, 3.5 h pi), 5.0 %DI/cm^3; in data set [2] (Neck ganglia, infected mouse #3, 24 h pi) it was 1.1 %DI/cm^3. For the same compound, the SPECT quantification in data set [2] (Salivary glands, infected mouse #2, 0.5 h pi) was determined as 16.7 %DI/cm^3; in data set [2] (Salivary glands, infected mouse #2, 3.5 h pi), 37.6 %DI/cm^3; in data set [2] (Salivary glands, infected mouse #2, 24 h pi) it was 3.0 %DI/cm^3; in data set [2] (Salivary glands, infected mouse #3, 0.5 h pi), 8.1 %DI/cm^3; in data set [2] (Salivary glands, infected mouse #3, 3.5 h pi) it was 20.3 %DI/cm^3; in data set [2] (Salivary glands, infected mouse #3, 24 h pi), 3.3 %DI/cm^3. For the same compound, the SPECT quantification in data set [2] (Stomach, infected mouse #2, 0.5 h pi) came to 12.1 %DI/cm^3; in data set [2] (Stomach, infected mouse #2, 3.5 h pi) it was 17.1 %DI/cm^3; in data set [2] (Stomach, infected mouse #2, 24 h pi), 4.2 %DI/cm^3; in data set [2] (Stomach, infected mouse #3, 0.5 h pi), 45.0 %DI/cm^3; in data set [2] (Stomach, infected mouse #3, 3.5 h pi), 42.7 %DI/cm^3; in data set [2] (Stomach, infected mouse #3, 24 h pi), 8.9 %DI/cm^3. Moreover, the SPECT quantification in data set [2] (Thyroid, infected mouse #2, 0.5 h pi) is 28.9 %DI/cm^3; in data set [2] (Thyroid, infected mouse #2, 3.5 h pi), 18.8 %DI/cm^3; in data set [2] (Thyroid, infected mouse #2, 24 h pi) it was 26.6 %DI/cm^3; in data set [2] (Thyroid, infected mouse #3, 0.5 h pi) it was 4.1 %DI/cm^3; in data set [2] (Thyroid, infected mouse #3, 3.5 h pi) it was 9.9 %DI/cm^3; in data set [2] (Thyroid, infected mouse #3, 24 h pi), 29.5 %DI/cm^3. Also, the “SPECT activity in neck ganglia” value was ~ 1% in data set [2] (both infected mice, 24 h pi); 8.5 % ID/cm^3 in data set [2] (infected mouse #2, 30 min pi); 9.5 % ID/cm^3 in data set [2] (infected mouse #2, 3.5 h pi); 4 % ID/cm^3 in data set [2] (infected mouse #3, 30 min pi); 5 % ID/cm^3 in data set [2] (infected mouse #3, 3.5 h pi). In addition, the route of elimination entry in data set [2] (oral gavage of the radiotracer, mice) was “primarily through the urinary tract”.
Regarding `CCc1nc(N)nc(N)c1-c1ccc(Cl)cc1` [pyrimethamine], in the data set with Toxoplasma, the IC50 is 400 nM.
As to FR235222, the “efficiency on parasite proliferation and ex vivo cyst formation” value in the data set with Toxoplasma gondii is “efficient in vitro”.

Usually IC50 stands for the concentration needed to halve the response being measured.
